Among the data in patent US20240217990A1 (Gilead Sciences, Inc., priority 2021, published 2024) are EC50 values, retold here.

SMILES strings stand for the structures.

One test deals with T1, TLR8 (Homo sapiens, UniProt Q9NR97).
T1 construct: Human peripheral blood mononuclear cells (PBMCs) consist of lymphocytes, monocytes and dendritic cells that express TLR7, TLR8 and TLR9; endogenous in cells; host or cells: cryopreserved human PBMCs from healthy donors
T1 sequence (Q9NR97 27-1041): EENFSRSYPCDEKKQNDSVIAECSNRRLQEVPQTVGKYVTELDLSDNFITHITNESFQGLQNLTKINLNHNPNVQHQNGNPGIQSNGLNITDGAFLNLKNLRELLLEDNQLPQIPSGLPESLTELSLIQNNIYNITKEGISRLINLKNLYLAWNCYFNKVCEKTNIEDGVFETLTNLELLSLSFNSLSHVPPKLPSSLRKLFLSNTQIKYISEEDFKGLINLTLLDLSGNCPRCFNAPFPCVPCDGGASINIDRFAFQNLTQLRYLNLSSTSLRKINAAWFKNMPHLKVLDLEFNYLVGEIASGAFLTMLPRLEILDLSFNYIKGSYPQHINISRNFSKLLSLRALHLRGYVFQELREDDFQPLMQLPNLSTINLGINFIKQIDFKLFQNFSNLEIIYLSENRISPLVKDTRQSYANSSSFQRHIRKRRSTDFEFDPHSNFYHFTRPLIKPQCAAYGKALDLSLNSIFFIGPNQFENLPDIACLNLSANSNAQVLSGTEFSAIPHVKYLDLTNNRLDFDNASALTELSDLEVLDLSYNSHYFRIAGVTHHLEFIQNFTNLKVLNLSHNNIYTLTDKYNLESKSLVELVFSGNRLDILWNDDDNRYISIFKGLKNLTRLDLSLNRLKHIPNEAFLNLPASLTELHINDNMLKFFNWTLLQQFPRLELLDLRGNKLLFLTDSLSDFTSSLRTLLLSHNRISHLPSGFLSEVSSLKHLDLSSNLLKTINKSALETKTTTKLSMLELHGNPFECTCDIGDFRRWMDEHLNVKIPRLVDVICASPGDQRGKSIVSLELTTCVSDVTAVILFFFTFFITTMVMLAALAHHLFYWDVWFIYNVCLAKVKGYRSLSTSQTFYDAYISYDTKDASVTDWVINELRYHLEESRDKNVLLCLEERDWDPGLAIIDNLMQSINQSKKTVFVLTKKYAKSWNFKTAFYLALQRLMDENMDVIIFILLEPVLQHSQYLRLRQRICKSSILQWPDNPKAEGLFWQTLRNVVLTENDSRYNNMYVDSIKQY
The test can be described thus: TLR8 human PBMC cell-based assay (antagonist, Compound A stimulated cytokine release). Conditions: human PBMCs; TLR8 agonist Compound A 800 nM, 6 hours; cytokines (TNFa and IL 12p40) in supernatant; read-out: TLR-8 EC50. A digest of the protocol: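 Cryopreserved donor PBMCs (100,000/well, RPMI + 10% FBS) were preincubated 1 h with antagonist (10-point dose response, quadruplicate), then stimulated with Compound A (800 nM final) for 6 h at 37 °C. TNFa and IL-12p40 in supernatants were measured by electrochemiluminescence; sigmoidal fits gave EC50.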

For another test, the target named is T2, TLR7 (Homo sapiens, UniProt Q9NYK1).
T2 construct: Human peripheral blood mononuclear cells (PBMCs) consist of lymphocytes, monocytes and dendritic cells that express TLR7, TLR8 and TLR9; endogenous in cells; host or cells: cryopreserved human PBMCs from healthy donors
T2 sequence (Q9NYK1 27-1049): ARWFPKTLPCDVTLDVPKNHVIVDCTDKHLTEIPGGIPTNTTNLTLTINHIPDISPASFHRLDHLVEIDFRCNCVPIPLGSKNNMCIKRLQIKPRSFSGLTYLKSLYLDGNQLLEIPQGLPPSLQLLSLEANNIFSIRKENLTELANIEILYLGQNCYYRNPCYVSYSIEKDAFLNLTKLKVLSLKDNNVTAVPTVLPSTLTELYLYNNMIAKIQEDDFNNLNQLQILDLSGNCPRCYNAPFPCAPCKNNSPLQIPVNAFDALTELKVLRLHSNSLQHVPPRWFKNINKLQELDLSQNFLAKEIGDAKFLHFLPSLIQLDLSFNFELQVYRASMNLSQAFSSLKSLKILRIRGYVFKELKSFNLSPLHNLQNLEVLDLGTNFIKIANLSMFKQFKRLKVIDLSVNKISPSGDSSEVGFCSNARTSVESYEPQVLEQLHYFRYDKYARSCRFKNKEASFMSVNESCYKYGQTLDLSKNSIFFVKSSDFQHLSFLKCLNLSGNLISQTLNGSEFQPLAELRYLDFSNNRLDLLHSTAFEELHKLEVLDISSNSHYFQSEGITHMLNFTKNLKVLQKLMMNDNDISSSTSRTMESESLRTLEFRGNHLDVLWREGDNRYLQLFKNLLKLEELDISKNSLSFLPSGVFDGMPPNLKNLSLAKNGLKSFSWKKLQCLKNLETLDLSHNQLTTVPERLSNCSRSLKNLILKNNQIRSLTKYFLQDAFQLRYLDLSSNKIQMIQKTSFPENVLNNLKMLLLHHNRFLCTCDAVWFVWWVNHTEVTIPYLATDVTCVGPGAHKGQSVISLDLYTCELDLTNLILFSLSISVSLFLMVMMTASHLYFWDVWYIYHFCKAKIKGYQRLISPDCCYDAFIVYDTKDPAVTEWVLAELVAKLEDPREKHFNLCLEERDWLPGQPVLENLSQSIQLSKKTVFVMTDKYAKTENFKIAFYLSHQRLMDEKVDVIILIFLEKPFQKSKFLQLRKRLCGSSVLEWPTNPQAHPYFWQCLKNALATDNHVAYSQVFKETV
The test can be described thus: TLR7 human PBMC cell-based assay (antagonist, GS-986 stimulated cytokine release). As to conditions: human PBMCs; TLR7 agonist GS-986 400 nM, 6 hours; cytokines (IL-6 and IFNα) in supernatant; read-out: TLR-7 EC50. A digest of the protocol: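 EC50 derived by sigmoidal fitting of IL-6 and IFNα levels, quantified by electrochemiluminescence in supernatants of human PBMCs given 400 nM GS-986 for 6 h. Cells (100,000/well in RPMI-1640, 10% FBS) had received test antagonist 1 h beforehand, 10 doses in quadruplicate, at 37 °C.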

Regarding `Cc1cc(-c2[nH]c3cc(C(=O)N4CCNCC4)sc3c2C(C)C)cc(C)n1` [Example 1, [5-(2,6-dimethyl-4-pyridyl)-6-isopropyl-4H-thieno[3,2-b]pyrrol-2-yl]-piperazin-1-yl-methanone], the results for the EC50 on TLR8 and on TLR7 were 19.8 nM and 24.8 nM, respectively.

`Cc1cc(-c2[nH]c3cc(C4CCN(Cc5ccn(C)n5)CC4)sc3c2C(C)C)cn2ncnc12` [Example 194]: the figures for the EC50 at TLR8 and at TLR7 were 0.6 nM and 4.5 nM, respectively.

As for `Cc1cc(-c2[nH]c3cc(C4CCC5(CC4)CN(C(=O)[C@@H]4COCCN4)C5)sc3c2C(C)C)cn2ncnc12` [Example 285], the figures for the EC50 on TLR8 and on TLR7 were 15.2 nM and 0.34 nM, respectively.

`Cc1cc(-c2[nH]c3cc(C(=O)N(C)[C@@H]4CCNC[C@H]4F)sc3c2C(C)C)cn2ncnc12` [Example 76]: the 50% effective concentration (EC50) at TLR8 was found to be 6.5 nM; at TLR7 it was 0.6 nM.

As for `Cc1cc(-c2[nH]c3cc(C4CCNCC4(C)C)sc3c2C(C)C)cn2ncnc12` (centres unmarked) [Example 293], the EC50 at TLR8 was 5.56 nM; on TLR7, 0.82 nM.

For `Cc1cc(-c2[nH]c3cc(C(=O)N(C)C4CCC(N5CC6CCC(C5)O6)CC4)sc3c2C(C)C)cn2ncnc12` (centres unmarked) [Example 248], the EC50 on TLR8 is 19.5 nM; on TLR7, 7.6 nM.

In the case of `Cc1cc(-c2[nH]c3cc(C(=O)N4CCNCC4)sc3c2C(C)C)cn2ncnc12` [Example 38, [6-isopropyl-5-(8-methyl-[1,2,4]triazolo[1,5-a]pyridin-6-yl)-4H-thieno[3,2-b]pyrrol-2-yl]-piperazin-1-yl-methanone], the concentration giving a half-maximal response (EC50) at TLR8 worked out at 3.4 nM; on TLR7, 3.5 nM.

For `Cc1cc(-c2[nH]c3cc(C(=O)N(C)C4CCC(N5CC(F)(F)C5)CC4)sc3c2C(C)C)cn2ncnc12` (centres unmarked) [Example 246, N-(4-(3,3-difluoroazetidin-1-yl)cyclohexyl)-6-isopropyl-N-methyl-5-(8-methyl-[1,2,4]triazolo[1,5-a]pyridin-6-yl)-4H-thieno[3,2-b]pyrrole-2-carboxamide], the EC50 on TLR8 amounted to 191 nM; at TLR7 it was 53.4 nM.

For the molecule `Cc1cc(-c2[nH]c3cc(C4CC4C(=O)N4CCNCC4)sc3c2C(C)C)cn2ncnc12` (centres unmarked) [Example 303], the EC50 turned out to be 3.52 nM at TLR8 and 0.44 nM at TLR7.

Consider `Cc1cc(-c2[nH]c3cc(-c4ccc(N5CCNCC5)nc4)sc3c2C(C)C)cc(C)n1` [Example 51, 5-(2,6-dimethyl-4-pyridyl)-6-isopropyl-2-(6-piperazin-1-yl-3-pyridyl)-4F1-thieno[3,2-b]pyrrole], for which the figures for the EC50 at TLR8 and at TLR7 were 61.4 nM and 20.9 nM, respectively.

For `Cc1cc(-c2[nH]c3cc(C(=O)N(C)[C@H]4CCNC4)sc3c2C(C)C)cn(C)c1=O` [Example 36], the EC50 on TLR8 amounted to 37 nM; on TLR7, 29.8 nM.

On to `Cc1cc(-c2[nH]c3cc(C(=O)N4CCN(CCO)CC4)sc3c2C(C)C)cn2ncnc12` [Example 69], for which the EC50 was 9.2 nM on TLR8 and 24.4 nM at TLR7.

For `CCN1C[C@@H](N(C)C(=O)c2cc3[nH]c(-c4cn5ncnc5c(C)c4C)c(C(C)C)c3s2)C[C@@H](C(F)(F)F)C1` [Example 274, 5-(7,8-dimethyl-[1,2,4]triazolo[1,5-a]pyridin-6-yl)-N-((3S,5R)-1-ethyl-5-(trifluoromethyl)piperidin-3-yl)-6-isopropyl-N-methyl-4H-thieno[3,2-b]pyrrole-2-carboxamide], the values for the EC50 on TLR8 and at TLR7 were 70.7 nM and 360 nM, respectively.

Regarding `Cc1cc(-c2[nH]c3cc(-c4nnc(N5CCNCC5)s4)sc3c2C(C)C)cn2ncnc12` [Example 49], the EC50 was determined as 3.2 nM at TLR8 and 0.4 nM at TLR7.

With `Cc1cc(-c2[nH]c3cc(-c4ccc(N5CCNCC5)cc4)sc3c2C(C)C)cn2ncnc12` [Example 214], the values for the EC50 at TLR8 and on TLR7 were 2.9 nM and 0.6 nM, respectively.

`Cc1cc(-c2[nH]c3cc(C(=O)N4CCNC(=O)C4)sc3c2C(C)C)cn2ncnc12` [Example 40, 4-[6-isopropyl-5-(8-methyl-[1,2,4]triazolo[1,5-a]pyridin-6-yl)-4H-thieno[3,2-b]pyrrole-2-carbonyl]piperazin-2-one]: the EC50 on TLR8 stood at 115 nM; on TLR7, 17.8 nM.

For the molecule `CCc1c(-c2cc(C)c3ncnn3c2)[nH]c2cc(-c3nc(N4CCNCC4)no3)sc12` [Example 47], the figures for the half-maximal effective concentration (EC50) at TLR8 and on TLR7 were 2.1 nM and 0.6 nM, respectively.

As to `CCc1c(-c2cc(C)c3ncnn3c2)[nH]c2cc(-c3nc4ccc(N5CCNCC5)cc4[nH]3)sc12` [Example 245], the EC50 on TLR8 is 66.7 nM; at TLR7, 337 nM.

For the molecule `Cc1cc(-c2[nH]c3cc(C4CCN(C(=O)[C@H]5CCN(C)C5)CC4)sc3c2C(C)C)cn2ncnc12` [Example 205], the figures for the EC50 on TLR8 and on TLR7 were 9 nM and 0.5 nM, respectively.

As to `Cc1cc(-c2[nH]c3cc(CN4CCC(C)(O)CC4)sc3c2C(C)C)cn2ncnc12` [Example 270, 1-((6-Isopropyl-5-(8-methyl-[1,2,4]triazolo[1,5-a]pyridin-6-yl)-4H-thieno[3,2-b]pyrrol-2-yl)methyl)-4-methylpiperidin-4-ol], the EC50 on TLR8 was 3 nM; on TLR7 it was 8.2 nM.

`Cc1cc(-c2[nH]c3cc(-c4cccc(N5CCNCC5)c4)sc3c2C(C)C)cn2ncnc12` [Example 234]: the results for the EC50 on TLR8 and at TLR7 were 8.4 nM and 8.1 nM, respectively.

Turning to `Cc1cc(-c2[nH]c3cc(C(=O)NC4CCNCC4)sc3c2C(C)C)cc(C)n1` [Example 4], the results for the EC50 at TLR8 and at TLR7 were 588 nM and 592 nM, respectively.

Regarding `Cc1cc(-c2[nH]c3cc(C4C5CCC4CN(CC(N)=O)C5)sc3c2C(C)C)cn2ncnc12` (centres unmarked) [Example 309, 2-(8-(6-isopropyl-5-(8-methyl-[1,2,4]triazolo[1,5-a]pyridin-6-yl)-4H-thieno[3,2-b]pyrrol-2-yl)-3-azabicyclo[3.2.1]octan-3-yl)acetamide], the values for the EC50 on TLR8 and at TLR7 were 17.1 nM and 0.95 nM, respectively.

Turning to `Cc1cc(-c2[nH]c3cc(-c4ccc5c(c4)CNC5)sc3c2C(C)C)cn2ncnc12` [Example 209, 2-(isoindolin-5-yl)-6-isopropyl-5-(8-methyl-[1,2,4]triazolo[1,5-a]pyridin-6-yl)-4H-thieno[3,2-b]pyrrole], the EC50 at TLR8 worked out at 1.7 nM; at TLR7, 15.4 nM.

As to `Cc1cc(-c2[nH]c3cc(C(=O)N(C)C4CCNCC4(C)C)sc3c2C(C)C)cn2ncnc12` (centres unmarked) [Example 92], the EC50 on TLR8 came to 23.1 nM; on TLR7, 0.2 nM.
